From ChEMBL document CHEMBL1134658 (J Med Chem, 2001)

Assays:
Cytochrome P450 2C8 = target: T1, Cytochrome P450 2C8 (Homo sapiens, UniProt P10632); assay: Inhibitory effect on human recombinant liver Cytochrome P450 2C8 expressed in yeast strain
T1 sequence (P10632 whole entry): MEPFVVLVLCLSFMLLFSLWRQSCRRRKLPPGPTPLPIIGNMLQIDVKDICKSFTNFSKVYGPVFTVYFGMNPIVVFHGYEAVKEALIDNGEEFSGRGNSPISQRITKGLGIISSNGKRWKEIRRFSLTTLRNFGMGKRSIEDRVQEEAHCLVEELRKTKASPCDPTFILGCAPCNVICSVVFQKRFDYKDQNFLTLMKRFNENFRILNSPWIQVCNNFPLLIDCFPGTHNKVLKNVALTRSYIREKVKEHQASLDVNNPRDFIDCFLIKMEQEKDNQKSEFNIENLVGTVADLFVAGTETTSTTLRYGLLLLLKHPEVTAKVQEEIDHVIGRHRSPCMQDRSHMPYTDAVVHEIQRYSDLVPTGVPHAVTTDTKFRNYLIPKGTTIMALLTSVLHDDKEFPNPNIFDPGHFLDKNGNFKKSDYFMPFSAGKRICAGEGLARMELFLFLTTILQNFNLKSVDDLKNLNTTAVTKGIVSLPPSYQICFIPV

Cytochrome P450 2C18 = target: T2, Cytochrome P450 2C18 (Homo sapiens, UniProt P33260); assay: Inhibitory effect on human recombinant liver cytochrome P450 2C18 expressed in yeast strain
T2 sequence (P33260 whole entry): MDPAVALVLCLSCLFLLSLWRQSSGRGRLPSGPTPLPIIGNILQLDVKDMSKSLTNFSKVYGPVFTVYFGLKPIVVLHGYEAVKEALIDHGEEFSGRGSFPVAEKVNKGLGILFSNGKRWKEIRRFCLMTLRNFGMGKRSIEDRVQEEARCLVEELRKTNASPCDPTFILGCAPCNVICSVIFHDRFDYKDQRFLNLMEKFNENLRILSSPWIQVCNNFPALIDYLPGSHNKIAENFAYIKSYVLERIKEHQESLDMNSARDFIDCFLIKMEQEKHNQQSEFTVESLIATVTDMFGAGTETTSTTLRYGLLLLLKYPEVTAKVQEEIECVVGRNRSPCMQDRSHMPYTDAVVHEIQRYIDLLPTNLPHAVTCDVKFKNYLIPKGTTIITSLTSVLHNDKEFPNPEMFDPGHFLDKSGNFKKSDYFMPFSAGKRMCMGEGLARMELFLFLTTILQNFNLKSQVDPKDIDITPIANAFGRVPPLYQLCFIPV

Cytochrome P450 2C19 = Cytochrome P450 2C19 (Homo sapiens, UniProt P33261); assay: Inhibitory effect on human recombinant liver cytochrome P450 2C19 expressed in yeast strain
Cytochrome P450 2C9 = Cytochrome P450 2C9 (Homo sapiens, UniProt P11712); assay: Inhibitory effect on human recombinant liver cytochrome P450 2C9 expressed in yeast strain
Chain of Cytochrome P450 2C9 (P11712 whole entry): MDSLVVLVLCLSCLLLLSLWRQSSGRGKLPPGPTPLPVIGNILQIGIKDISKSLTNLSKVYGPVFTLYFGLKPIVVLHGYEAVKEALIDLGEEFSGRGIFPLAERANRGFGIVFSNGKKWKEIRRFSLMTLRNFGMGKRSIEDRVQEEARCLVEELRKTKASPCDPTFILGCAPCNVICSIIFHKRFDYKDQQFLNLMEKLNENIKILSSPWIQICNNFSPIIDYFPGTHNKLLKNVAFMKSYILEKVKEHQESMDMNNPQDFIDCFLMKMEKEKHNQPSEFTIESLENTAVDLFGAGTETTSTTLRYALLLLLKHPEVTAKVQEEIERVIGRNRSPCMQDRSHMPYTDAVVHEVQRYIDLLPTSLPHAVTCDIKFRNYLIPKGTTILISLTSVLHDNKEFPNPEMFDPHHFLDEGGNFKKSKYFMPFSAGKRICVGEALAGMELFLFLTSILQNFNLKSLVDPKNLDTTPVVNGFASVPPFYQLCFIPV

Chain of Cytochrome P450 2C19 (P33261 whole entry): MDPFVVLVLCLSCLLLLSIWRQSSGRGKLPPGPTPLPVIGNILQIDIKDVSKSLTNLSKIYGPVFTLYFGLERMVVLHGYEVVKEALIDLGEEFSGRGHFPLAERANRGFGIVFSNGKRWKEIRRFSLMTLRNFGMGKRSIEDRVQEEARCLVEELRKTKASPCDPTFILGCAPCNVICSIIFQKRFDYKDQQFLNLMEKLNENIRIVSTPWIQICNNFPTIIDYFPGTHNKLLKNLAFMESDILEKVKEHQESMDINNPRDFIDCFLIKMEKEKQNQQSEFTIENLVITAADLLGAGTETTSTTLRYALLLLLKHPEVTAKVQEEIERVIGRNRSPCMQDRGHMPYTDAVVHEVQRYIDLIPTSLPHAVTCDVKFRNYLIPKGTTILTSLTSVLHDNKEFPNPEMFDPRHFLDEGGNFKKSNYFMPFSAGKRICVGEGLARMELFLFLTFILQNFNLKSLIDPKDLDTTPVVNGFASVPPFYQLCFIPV

IC50 (Cytochrome P450 2C8) | IC50 (Cytochrome P450 2C18) | IC50 (Cytochrome P450 2C19) | IC50 (Cytochrome P450 2C9) | Compound
130 µM | 60 µM | – | – | Nc1ccc(S(=O)(=O)Nc2ccnn2-c2ccccc2)cc1 [SULFAPHENAZOLE]
4 µM | 6 µM | 60 µM | 50 µM | CCCCN(c1ccnn1-c1ccccc1)S(=O)(=O)c1ccc(N)cc1
> 250 µM | 4 µM | – | – | O=[N+]([O-])c1cccc(-c2ccc(S(=O)(=O)N(CCCCO)c3ccnn3-c3ccccc3)cc2)c1
22 µM | 30 µM | – | – | Nc1ccc(S(=O)(=O)N(CCCO)c2ccnn2-c2ccccc2)cc1
30 µM | 3 µM | 130 µM | 80 µM | CC(C)N(c1ccnn1-c1ccccc1)S(=O)(=O)c1ccc(N)cc1
20 µM | 10 µM | 20 µM | > 200 µM | C=CCc1ccc(S(=O)(=O)N(C)c2ccnn2-c2ccccc2)cc1
> 250 µM | 65 µM | – | – | NCCc1ccc(S(=O)(=O)N(CCCO)c2ccnn2-c2ccccc2)cc1
8 µM | 8 µM | 250 µM | 55 µM | CCCN(c1ccnn1-c1ccccc1)S(=O)(=O)c1ccc(N)cc1
> 250 µM | 9 µM | 165 µM | 20 µM | O=[N+]([O-])c1cccc(-c2ccc(S(=O)(=O)N(CCO)c3ccnn3-c3ccccc3)cc2)c1
50 µM | 15 µM | 200 µM | 100 µM | CN(c1ccnn1-c1ccccc1)S(=O)(=O)c1ccc(N)cc1
180 µM | 12 µM | 20 µM | 10 µM | Cc1ccc(S(=O)(=O)N(C)c2ccnn2-c2ccccc2)cc1
13 µM | 7 µM | 225 µM | 90 µM | CCN(c1ccnn1-c1ccccc1)S(=O)(=O)c1ccc(N)cc1
10 µM | 150 µM | 450 µM | 1 µM | C=CCc1ccc(S(=O)(=O)Nc2ccnn2-c2ccccc2)cc1
> 250 µM | 8 µM | – | – | O=[N+]([O-])c1cccc(-c2ccc(S(=O)(=O)N(CCCO)c3ccnn3-c3ccccc3)cc2)c1
8 µM | 20 µM | – | – | Nc1cccc(-c2ccc(S(=O)(=O)Nc3ccnn3-c3ccccc3)cc2)c1
15 µM | 20 µM | 10 µM | 20 µM | CCCN(c1ccnn1-c1ccccc1)S(=O)(=O)c1ccc(C)cc1
15 µM | 7 µM | 45 µM | 55 µM | Nc1ccc(S(=O)(=O)N(Cc2ccccc2)c2ccnn2-c2ccccc2)cc1
